This is an account of results in patent US11666658B2, “Rifamycin analogs and antibody-drug conjugates thereof” (Regeneron Pharmaceuticals, Inc., priority 2018, dated 2023).

SMILES strings stand for the structures. In brackets after ≈: the same amount, converted by molar mass. Entries after “also recorded” stand apart in the source; their conditions may differ.

The test system of assay [1] is intracellular S. aureus NRS384 in THP-1 macrophages. The experiment in a line: Intracellular killing assay 1 (rifamycin analogs, S. aureus in THP-1 macrophages). The assay is classed as cell-based, Staphylococcus aureus. As to conditions: for MIC: Staphylococcus aureus, NRS384, lowest concentration that resulted in intracellular S. aureus eradication. The protocol:
THP-1 monocytic cell line was grown in media (RMPI+10% FBS+1% Penicillin/Streptomycin), then seeded at a density of 1e5 cells/well in a 96 well plate and differentiated into macrophages for three days prior to infection using 200 nM PMA. An overnight culture of S. aureus NRS384 was grown in RPMI, washed twice with PBS and resuspended at 1e7 cfu/mL in PBS. THP-1 were washed with warm media (RMPI without FBS) to remove the Penicillin/Streptomycin and then infected with the S. aureus suspension at a multiplicity of infection of 10:1 (S. aureus: macrophages). Plates were spun at 300×g for 5 minutes to synchronize adhesion of the bacteria, then incubated at 37° C. for 2 hours. Free-floating bacteria were removed by washing 2× with warm media and remaining extracellular S. aureus were killed by addition of media containing gentamicin (50 ug/mL). After 1 h, media was aspirated and the indicated compound was added to infected macrophages in media containing 50 µg/mL gentamicin to prevent extracellular growth of S. aureus. After 2 h, plates were washed 2× with warm RPMI without FBS, and 100 ul of THP-1 lysis buffer (0.1% Triton in PBS) was added to each well. S. aureus survival was enumerated by colony forming units through serial dilution and plating onto TSA.

Assay [2] relates to S. aureus NRS384. Briefly: Broth minimum inhibitory concentration (MIC) assay 1, S. aureus growth inhibition. In kind it is cell-based, Staphylococcus aureus. As to conditions: S. aureus NRS384 in TSB, 24 h at 37° C., OD600 nm; for MIC: Staphylococcus aureus. The protocol: To test the potency of rifamycin analogs of the disclosure in vitro, a broth growth inhibition assay was developed. For the assay, S. aureus NRS384 was grown in Tryptic Soy Broth (TSB) overnight, then sub-cultured 1:50 in fresh TSB and grown for an additional two hours. The culture was then pelleted via centrifugation and washed twice in PBS. The culture was then diluted to 1×10^4 cfu/mL in TSB and 50 μL of the suspension was added per well to a 96 well microtiter dish in duplicate. A dilution series of the indicated antibiotic (an analog according to the disclosure or a previously known analog Rifampicin) was added 1:1 for a final starting concentration of 1×10^−5 M with 1:3 dilutions. The plates were incubated at 37° C. with shaking for 24 h and then the OD600 nm was read on a Spectramax i3 Minimax 300.
A plot of the S. aureus inhibition assay conducted with rifamycin analogs according to the disclosure is shown as FIG. 1.

Assay [3] has as its system intracellular S. aureus NRS384 in THP-1 macrophages. Briefly: Intracellular killing assay 2 (rifamycin analogs, S. aureus in THP-1 macrophages). As to conditions: Staphylococcus aureus, NRS384, 2 h; lowest concentration giving intracellular S. aureus below limit of detection (50 cfu/mL) in THP-1 macrophages; median of at least two experiments; read-out: S. aureus Intracellular killing MIC. In kind it is cell-based, Staphylococcus aureus. In short, it runs like this: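 PMA-differentiated THP-1 cells were infected at MOI 10:1 for 2 h at 37 °C, then extracellular bacteria were killed with gentamicin. Compounds were given for 2 h in gentamicin-containing media. Cells were lysed in 0.1% Triton and surviving bacteria counted as CFU on TSA; median of ≥2 independent experiments.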

Assay [4] deals with S. aureus NRS384. The experiment in a line: Broth minimum inhibitory concentration (MIC) assay 2. The assay is classed as cell-based, Staphylococcus aureus. As to conditions: Staphylococcus aureus; S. aureus NRS384 in TSB, 24 hours at 37° C., OD600; median of at least two independent experiments; read-out: S. aureus Broth MIC. In short, it runs like this:
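S. aureus NRS384, washed and diluted to 1×10^6 cfu/mL in TSB, incubated with compound in triplicate at 37° C with shaking for 24 hours. Growth read as OD600 nm; MIC reported as median of at least two independent experiments.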

In assay [5] the test system is S. aureus MSRA strain NRS384. Briefly: S. aureus IV disseminated infection mouse model (4 day model, Balb/c mice), kidney burden. The assay is classed as in vivo. The settings on record: 4 day infection model, mAb or conjugate 1 mg/kg, with vancomycin treatment, limit of detection 250 cfu. The protocol: S. aureus MSRA strain NRS384 was grown overnight in Tryptic soy broth (TSB) and sub-cultured to mid-logarithmic phase. Bacteria were then washed twice with PBS and resuspended in PBS at a concentration of 1.5×10^8 cfu/mL. […] Mice were monitored for weight loss and body conditioning score throughout the infection. […] For quantification, the kidneys were homogenized followed by enumeration of colony forming units through serial dilution in PBS and plating onto trypticase soy agar plates.

The test system of assay [6] is S. aureus MSRA strain NRS384. The experiment in a line: S. aureus IV advanced disseminated infection mouse model (8 day model, Balb/c mice), kidney burden. The assay is classed as in vivo. The protocol:
To test the efficacy of anti-S. aureus Ab-antibiotic ncADCs of the disclosure in combination therapy with standard of care vancomycin in vivo, two different 8 day intravenous disseminated infection models was performed. […] S. aureus MSRA strain NRS384 was grown overnight in Tryptic soy broth (TSB) and sub-cultured to mid-logarithmic phase. Bacteria were then washed twice with PBS and resuspended in PBS at a concentration of 1.5×10^8 cfu/mL. Balb/c mice were then infected intravenously through the tail vein with 100 uL of the bacterial suspension, for a final infectious dose of […]. In the first study, mice were treated either vancomycin alone, an isotype control antibody plus vancomycin, an isotype control Ab-ncADC (Isotype control-36) plus vancomycin, an anti-WTA antibody plus vancomycin, an anti-WTA Ab-Antibiotic ncADC (anti-WTA Ab-Antibiotic ncADC-36), or a different anti-WTA Ab-Antibiotic ncADC (anti-WTA Ab-Antibiotic ncADC-25) plus vancomycin. Mice were also treated either vancomycin alone, an isotype control antibody plus vancomycin, an isotype control Ab-Antibiotic ncADC (Isotype control Ab-Antibiotic ncADC-36) plus vancomycin, an anti-Protein A antibody plus vancomycin, or an anti-Protein A Ab-Antibiotic ncADC (anti-Protein A Ab-Antibiotic ncADC-36).
In the second study, mice were treated either vancomycin alone, an isotype control antibody plus vancomycin, an isotype control Ab-Antibiotic ncADC (Isotype control Ab-Antibiotic ncADC-36) plus vancomycin, a second isotype control Ab-Antibiotic ncADC (Isotype control Ab-Antibiotic ncADC-25) plus vancomycin, a third isotype control Ab-Antibiotic ncADC (Isotype control Ab-Antibiotic ncADC-21) plus vancomycin, an anti-WTA antibody plus vancomycin, an anti-WTA Ab-Antibiotic ncADC (anti-WTA Ab-Antibiotic ncADC-36), a second anti-WTA Ab-Antibiotic ncADC (anti-WTA Ab-Antibiotic ncADC-25) plus vancomycin, or a third anti-WTA Ab-Antibiotic ncADC (anti-WTA Ab-Antibiotic ncADC-21) plus vancomycin. In all studies, for treatment groups that included vancomycin, it was dosed from three to seven days post infection at 110 mg/kg subcutaneously twice daily. For treatment groups that included antibodies and ncADCs, they were administered four days after infection subcutaneously at 2 mg/kg for the first study or 5 mg/kg for the second study. A no treatment infected control and an uninfected control were included in each of the studies. Mice were monitored for weight loss and body conditioning score throughout the infection. At eight days post infection, mice were euthanized, and the S. aureus kidney burden was quantified. For quantification, the kidneys were homogenized followed by enumeration of colony forming units through serial dilution in PBS and plating onto trypticase soy agar plates. Data points represent the kidney burden from individual mice tested.

As for `COc1ccc2nc3c4c5c6c(C)c(O)c4c(=O)c(c-3oc2c1)NC(=O)/C(C)=C\C=C\[C@H](C)[C@H](O)[C@@H](C)[C@@H](O)[C@@H](C)[C@H](OC(C)=O)[C@H](C)[C@@H](OC)/C=C/O[C@@](C)(O6)C5=O` [Analog 1a, Rifamycin 4-MeO-Phenol Analogs], in assay [1], the “intracellular S. aureus killing capacity compared to rifampicin (in words)” value is “increased intracellular S. aureus killing capacity compared to rifampicin”. Moreover, the MIC in assay [1] (2 h with compound) was 1 µM (≈ 0.815 µg/mL); with S. aureus NRS384 [2], 0.014 µM (≈ 0.0114 µg/mL).
As to `CO[C@H]1/C=C/O[C@@]2(C)Oc3c(C)c(O)c4c(=O)c(c5oc6cc(OCc7ccccc7)ccc6nc-5c4c3C2=O)NC(=O)/C(C)=C\C=C\[C@H](C)[C@H](O)[C@@H](C)[C@@H](O)[C@@H](C)[C@H](OC(C)=O)[C@@H]1C` [Analog 1b, Rifamycin 4-BnO-Phenol Analogs], the results for the MIC (in assay [1] (2 h with compound); in the assay with S. aureus NRS384 [2]) were more than 1 µM and 0.12 µM (≈ 0.107 µg/mL), respectively.
As for `CO[C@H]1/C=C/O[C@@]2(C)Oc3c(C)c(O)c4c(=O)c(c5n(C)c6cc(O)ccc6nc-5c4c3C2=O)NC(=O)/C(C)=C\C=C\[C@H](C)[C@H](O)[C@@H](C)[C@@H](O)[C@@H](C)[C@H](OC(C)=O)[C@@H]1C` [Analog 1d, Rifamycin 4-OH-Phenol N-Methyl analogs], the MIC in assay [1] (2 h with compound) was more than 1 µM; in the assay with S. aureus NRS384 [2] it was 0.37 µM (≈ 0.301 µg/mL).
With `CO[C@H]1/C=C/O[C@@]2(C)Oc3c(C)c(O)c4c(=O)c(c5oc6cc(OC7CCNCC7)ccc6nc-5c4c3C2=O)NC(=O)/C(C)=C\C=C\[C@H](C)[C@H](O)[C@@H](C)[C@@H](O)[C@@H](C)[C@H](OC(C)=O)[C@@H]1C` [Analog 14], the “intracellular S. aureus killing capacity compared to rifampicin (in words)” value in assay [1] is “increased intracellular S. aureus killing capacity compared to rifampicin”. The MIC in assay [1] (2 h with compound) worked out at 1 µM (≈ 0.884 µg/mL); against S. aureus NRS384 [2], 0.041 µM (≈ 0.0362 µg/mL).
As for `CO[C@H]1/C=C/O[C@@]2(C)Oc3c(C)c(O)c4c(=O)c(c5oc6cc(OCCN(C)C)ccc6nc-5c4c3C2=O)NC(=O)/C(C)=C\C=C\[C@H](C)[C@H](O)[C@@H](C)[C@@H](O)[C@@H](C)[C@H](OC(C)=O)[C@@H]1C` [Analog 16a], in assay [1], the “intracellular S. aureus killing capacity compared to rifampicin (in words)” value is “increased intracellular S. aureus killing capacity compared to rifampicin; also recorded: highest activity”. Also, the MIC came out at 0.04 µM (≈ 0.0349 µg/mL) in assay [1] (2 h with compound) and 0.0015 µM (≈ 0.00131 µg/mL) against S. aureus NRS384 [2].
Take `CNCCOc1ccc2nc3c4c5c6c(C)c(O)c4c(=O)c(c-3oc2c1)NC(=O)/C(C)=C\C=C\[C@H](C)[C@H](O)[C@@H](C)[C@@H](O)[C@@H](C)[C@H](OC(C)=O)[C@H](C)[C@@H](OC)/C=C/O[C@@](C)(O6)C5=O` [Analog 16d]: the “intracellular S. aureus killing capacity compared to rifampicin (in words)” value in assay [1] is recorded as “increased intracellular S. aureus killing capacity compared to rifampicin”. For the same compound, the MIC is 1 µM (≈ 0.858 µg/mL) in assay [1] (2 h with compound) and 0.041 µM (≈ 0.0352 µg/mL) in the assay with S. aureus NRS384 [2].
`CO[C@H]1/C=C/O[C@@]2(C)Oc3c(C)c(O)c4c(=O)c(c5oc6cc(OCCN)ccc6nc-5c4c3C2=O)NC(=O)/C(C)=C\C=C\[C@H](C)[C@H](O)[C@@H](C)[C@@H](O)[C@@H](C)[C@H](OC(C)=O)[C@@H]1C` [Analog 16e]: the “intracellular S. aureus killing capacity compared to rifampicin (in words)” value in assay [1] was “increased intracellular S. aureus killing capacity compared to rifampicin”. The MIC came out at 1 µM (≈ 0.844 µg/mL) in assay [1] (2 h with compound) and 0.0046 µM (≈ 0.00388 µg/mL) in the assay on S. aureus NRS384 [2].
On to `CO[C@H]1/C=C/O[C@@]2(C)Oc3c(C)c(O)c4c(O)c(c(/C=N/N5CCN(C)CC5)c(O)c4c3C2=O)NC(=O)/C(C)=C\C=C\[C@H](C)[C@H](O)[C@@H](C)[C@@H](O)[C@@H](C)[C@H](OC(C)=O)[C@@H]1C` [Rifampicin, rifampicin, reference compound], for which the MIC in assay [3] worked out at 1 µM (≈ 0.823 µg/mL); with S. aureus NRS384 [4] it was 0.00391 µM (≈ 0.00322 µg/mL). Besides, in assay [1] (lowest concentration that resulted in intracellular S. aureus eradication, 2 h with compound), the “Intracellular killing MIC” value is recorded as more than 1.0E−06. For the same compound, in the assay with S. aureus NRS384 [2], the “S. aureus Broth MIC” value amounted to 0.0046 µM.
On to `CN[C@H](CC(C)C)C(=O)N[C@H]1C(=O)N[C@@H](CC(N)=O)C(=O)N[C@H]2C(=O)N[C@H]3C(=O)N[C@H](C(=O)N[C@H](C(=O)O)c4cc(O)cc(O)c4-c4cc3ccc4O)[C@H](O)c3ccc(c(Cl)c3)Oc3cc2cc(c3O[C@@H]2O[C@H](CO)[C@@H](O)[C@H](O)[C@H]2O[C@H]2C[C@](C)(N)[C@H](O)[C@H](C)O2)Oc2ccc(cc2Cl)[C@H]1O` [vancomycin], for which the Median cfu/kidney pair in assay [5] amounted to 4.38E+05 cfu/kidney pair; in assay [6] (Balb/c mice, 8 day model, first study (Table 37, anti-Protein A), mAb or conjugate 2 mg/kg, with vancomycin treatment), 7.25E+06 cfu/kidney pair; in assay [6] (Balb/c mice, 8 day model, second study (Table 38), mAb or conjugate 5 mg/kg, with vancomycin treatment), 1.88E+06 cfu/kidney pair; in assay [6] (in vivo), 7.25E+06 cfu/kidney pair. In assay [6] (first study, vancomycin alone 110 mg/kg subcutaneously twice daily day 3 to 7, kidneys at day 8), the “reduction of S. aureus kidney burden” value was 1-2 logs. For the same compound, the “reduction of S. aureus kidney bacterial burden” value in assay [6] (second study, vancomycin alone) is listed as 1-2 logs.
